According to patent US11434242B2, “Dopamine-b-hydroxylase inhibitors” (BIAL-PORTELA & Cª, S.A., priority 2017, dated 2022):
Marks after values point to notes of the source that are not given here.

Target: T1, Dopamine beta hydroxylase (Homo sapiens, UniProt P09172)
T1 construct: 125 μl of plasma; tissue Instituto Português do Sangue Transplantação; host or cells: human plasma from healthy donors
T1 sequence (P09172 40-617 limits assumed): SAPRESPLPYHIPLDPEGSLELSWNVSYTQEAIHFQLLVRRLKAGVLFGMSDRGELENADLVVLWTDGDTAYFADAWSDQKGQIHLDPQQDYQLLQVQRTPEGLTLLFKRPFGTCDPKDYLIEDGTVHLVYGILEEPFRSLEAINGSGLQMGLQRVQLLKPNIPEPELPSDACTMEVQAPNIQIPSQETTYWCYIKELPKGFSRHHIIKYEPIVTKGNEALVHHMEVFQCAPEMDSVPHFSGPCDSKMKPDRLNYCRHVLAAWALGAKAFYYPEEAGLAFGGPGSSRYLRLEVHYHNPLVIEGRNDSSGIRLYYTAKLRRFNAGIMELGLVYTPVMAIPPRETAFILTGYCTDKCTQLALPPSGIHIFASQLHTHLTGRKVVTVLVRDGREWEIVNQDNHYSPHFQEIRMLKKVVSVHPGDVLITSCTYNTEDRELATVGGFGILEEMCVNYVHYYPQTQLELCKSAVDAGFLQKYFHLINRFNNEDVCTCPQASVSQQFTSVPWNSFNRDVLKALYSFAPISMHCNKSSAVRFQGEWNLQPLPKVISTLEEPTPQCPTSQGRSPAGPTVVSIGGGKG
Test: Dopamine beta hydroxylase activity in human plasma
Format: biochemical
Details: for Plasma (1 μM), activity in % of control: inhibitor 1 μM
How it was run: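 Healthy-donor human plasma pre-incubated 10 min at 37° C with compound at final 10, 100 or 1000 nM in pH 5.0 acetate buffer with ascorbate, fumarate, pargyline, N-ethylmaleimide, catalase and copper sulfate. Tyramine substrate then added for 45 min; octopamine formed was isolated by SCX cartridge, periodate-converted and read at 330 nm; activity given as % control.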

Row | Compound | Plasma (0.01 μM), activity in % of control (inhibitor 0.01 μM) | Plasma (0.1 μM), activity in % of control (inhibitor 0.1 μM) | Plasma (0.01 μM), activity in % of control, re-test (asterisked) (inhibitor 0.01 μM, re-tested under the same experimental conditions, asterisked data believed to be correct) | Plasma (0.1 μM), activity in % of control, re-test (asterisked) (inhibitor 0.1 μM, re-tested under the same experimental conditions, asterisked data believed to be correct) | Plasma (1 μM), activity in % of control
1 | CC1CCN(C(=O)CCc2[nH]c(=S)n3c2C[C@H](c2c(F)c(F)cc(F)c2F)C3)CC1 [Example 208, (R)-1-(4-methylpiperidin-1-yl)-3-(6-(2,3,5,6-tetrafluorophenyl)-3-thioxo-2,5,6,7-tetrahydro-3H-pyrrolo[1,2-c]imidazol-1-yl)propan-1-one] | 62.0 % of control | 13.3 % of control |  |  | 
2 | O=C(O)CCc1[nH]c(=S)n2c1C[C@H](c1c(F)c(F)cc(F)c1F)C2 [Example 202, (R)-3-(6-(2,3,5,6-tetrafluorophenyl)-3-thioxo-2,5,6,7-tetrahydro-3H-pyrrolo[1,2-c]imidazol-1-yl)propanoic Acid] | 67.7 % of control | 22.7 % of control |  |  | 
3 | O=C(Cc1[nH]c(=S)n2c1C[C@H](c1c(F)c(F)cc(F)c1F)C2)N[C@H]1CC[C@H](O)CC1 [Example 28, N-((1r,4R)-4-hydroxycyclohexyl)-2-((R)-6-(2,3,5,6-tetrafluorophenyl)-3-thioxo-2,5,6,7-tetrahydro-3H-pyrrolo[1,2-c]imidazol-1-yl)acetamide] | 78.1 % of control | 33.8 % of control |  |  | 
4 | O=C(Cc1[nH]c(=S)n2c1C[C@H](c1c(F)c(F)cc(F)c1F)C2)N1CCC(O)CC1 [Example 82, (R)-1-(4-hydroxypiperidin-1-yl)-2-(6-(2,3,5,6-tetrafluorophenyl)-3-thioxo-2,5,6,7-tetrahydro-3H-pyrrolo[1,2-c]imidazol-1-yl)ethan-1-one] |  | 69.2 % of control |  |  | 16.6 % of control
5 | CN(C(=O)Cc1c2n(c(=S)n1C)C[C@@H](c1c(F)ccc(F)c1F)C2)C1CCOC1 (stereo partly drawn) [Example 374, N-methyl-2-((R)-2-methyl-3-thioxo-6-(2,3,6-trifluorophenyl)-2,5,6,7-tetrahydro-3H-pyrrolo[1,2-c]imidazol-1-yl)-N-(tetrahydrofuran-3-yl)acetamide] | 97.4 % of control | 50.0 % of control |  |  | 
6 | CC(C)NCCCc1[nH]c(=S)n2c1C[C@H](c1c(F)ccc(F)c1F)C2 [Example 472, (R)-1-(3-(isopropylamino)propyl)-6-(2,3,6-trifluorophenyl)-2,5,6,7-tetrahydro-3H-pyrrolo[1,2-c]imidazole-3-thione hydrofluoride] | 63.3 % of control | 14.2 % of control |  |  | 
7 | Cn1c(CC(=O)N[C@@H]2CCOC2)c2n(c1=S)C[C@@]1(c3c(F)ccc(Cl)c3F)C[C@@H]21 [Example 274, 2-((5aS,6aR)-5a-(3-chloro-2,6-difluorophenyl)-2-methyl-3-thioxo-2,3,5,5a,6,6a-hexahydrocyclopropa[3,4]pyrrolo[1,2-c]imidazol-1-yl)-N—((R)-tetrahydrofuran-3-yl)acetamide] | 55.9 % of control | 11.2 % of control |  |  | 
8 | CN(C(=O)Cc1[nH]c(=S)n2c1C[C@H](c1c(F)ccc(Br)c1F)C2)C1CCOCC1 [Example 128, (R)-2-(6-(3-bromo-2,6-difluorophenyl)-3-thioxo-2,5,6,7-tetrahydro-3H-pyrrolo[1,2-c]imidazol-1-yl)-N-methyl-N-(tetrahydro-2H-pyran-4-yl)acetamide] | 98.1 % of control | 29.7 % of control |  |  | 
9 | COCCNC(=O)Cc1[nH]c(=S)n2c1C[C@@H](c1c(F)ccc(Cl)c1F)C2 [Example 107, (S)-2-(6-(3-chloro-2,6-difluorophenyl)-3-thioxo-2,5,6,7-tetrahydro-3H-pyrrolo[1,2-c]imidazol-1-yl)-N-(2-methoxyethyl)acetamide] |  | 40.1 % of control |  |  | 6.3 % of control
10 | Cn1c(CC(=O)NC[C@@H]2CCCO2)c2n(c1=S)C[C@H](c1c(F)ccc(Cl)c1F)C2 [Example 336, 2-((S)-6-(3-chloro-2,6-difluorophenyl)-2-methyl-3-thioxo-2,5,6,7-tetrahydro-3H-pyrrolo[1,2-c]imidazol-1-yl)-N—(((S)-tetrahydrofuran-2-yl)methyl)acetamide] | 50.0 % of control | 9.4 % of control |  |  | 

Second part, the molecule after the results:

Row | Plasma (0.01 μM), activity in % of control (inhibitor 0.01 μM) | Plasma (0.1 μM), activity in % of control (inhibitor 0.1 μM) | Plasma (0.01 μM), activity in % of control, re-test (asterisked) (inhibitor 0.01 μM, re-tested under the same experimental conditions, asterisked data believed to be correct) | Plasma (0.1 μM), activity in % of control, re-test (asterisked) (inhibitor 0.1 μM, re-tested under the same experimental conditions, asterisked data believed to be correct) | Plasma (1 μM), activity in % of control | Compound
11 | 49.1 % of control | 6.4 % of control |  |  |  | Cn1c(CC(=O)N[C@@H]2CCCOC2)c2n(c1=S)C[C@@]1(c3cc(Cl)ccc3F)C[C@@H]21 [Example 301, 2-((5aS,6aR)-5a-(5-chloro-2-fluorophenyl)-2-methyl-3-thioxo-2,3,5,5a,6,6a-hexahydrocyclopropa[3,4]pyrrolo[1,2-c]imidazol-1-yl)-N—((R)-tetrahydro-2H-pyran-3-yl)acetamide]
12 | 52.2 % of control | 11.1 % of control | 84.5* % of control | 99.1* % of control |  | Cl.Fc1cc(F)c(F)c([C@H]2Cc3c(CCN4CCCC4)[nH]c(=S)n3C2)c1F [Example 198, (R)-1-(2-(pyrrolidin-1-yl)ethyl)-6-(2,3,5,6-tetrafluorophenyl)-2,5,6,7-tetrahydro-3H-pyrrolo[1,2-c]imidazole-3-thione Hydrochloride]
13 | 89.5 % of control | 38.6 % of control |  |  |  | O=C(Cc1[nH]c(=S)n2c1[C@@H]1C[C@]1(c1cc(Br)ccc1F)C2)NC1CC1 [Example 154, 2-((5aS,6aR)-5a-(5-bromo-2-fluorophenyl)-3-thioxo-2,3,5,5a,6,6a-hexahydrocyclopropa[3,4]pyrrolo[1,2-c]imidazol-1-yl)-N-cyclopropylacetamide]
14 | 65.9 % of control | 22.3 % of control |  |  |  | Cn1c(CC(=O)N2CCCC2)c2n(c1=S)C[C@@]1(c3cc(Br)ccc3F)C[C@@H]21 [Example 310, 2-((5aS,6aR)-5a-(5-bromo-2-fluorophenyl)-2-methyl-3-thioxo-2,3,5,5a,6,6a-hexahydrocyclopropa[3,4]pyrrolo[1,2-c]imidazol-1-yl)-1-(pyrrolidin-1-yl)ethan-1-one]
15 | 79.0 % of control | 24.4 % of control |  |  |  | Cn1c(CC(=O)O)c2n(c1=S)C[C@@]1(c3cc(Br)ccc3F)C[C@@H]21 [Example 275, 2-((5aS,6aR)-5a-(5-bromo-2-fluorophenyl)-2-methyl-3-thioxo-2,3,5,5a,6,6a-hexahydrocyclopropa[3,4]pyrrolo[1,2-c]imidazol-1-yl)acetic acid]
16 |  | 4.3 % of control |  |  | 0 % of control | O=C(Cc1[nH]c(=S)n2c1C[C@@H](c1c(F)ccc(Cl)c1F)C2)NCCCN1CCOCC1 [Example 89, (S)-2-(6-(3-chloro-2,6-difluorophenyl)-3-thioxo-2,5,6,7-tetrahydro-3H-pyrrolo[1,2-c]imidazol-1-yl)-N-(3-morpholinopropyl)acetamide]
17 | 88.6 % of control | 40.3 % of control |  |  |  | O=C(Cc1[nH]c(=S)n2c1[C@@H]1C[C@]1(c1cc(Cl)ccc1F)C2)NCc1ccccc1 [Example 156, N-benzyl-2-((5aS,6aR)-5a-(5-chloro-2-fluorophenyl)-3-thioxo-2,3,5,5a,6,6a-hexahydrocyclopropa[3,4]pyrrolo[1,2-c]imidazol-1-yl)acetamide]
18 | 91.1 % of control | 33.6 % of control |  |  |  | Cl.Cn1c(CCNC2CCCCC2)c2n(c1=S)C[C@@]1(c3cc(Br)ccc3F)C[C@@H]21 [Example 341, (5aS,6aR)-5a-(5-bromo-2-fluorophenyl)-1-(2-(cyclohexylamino)ethyl)-2-methyl-5,5a,6,6a-tetrahydrocyclopropa[3,4]pyrrolo[1,2-c]imidazole-3(2H)-thione hydrochloride]
19 | 64.2 % of control | 12.8 % of control |  |  |  | Cn1c(CC(=O)N[C@H]2CCOC2)c2n(c1=S)C[C@@]1(c3cc(Br)ccc3F)C[C@@H]21 [Example 308, 2-((5aS,6aR)-5a-(5-bromo-2-fluorophenyl)-2-methyl-3-thioxo-2,3,5,5a,6,6a-hexahydrocyclopropa[3,4]pyrrolo[1,2-c]imidazol-1-yl)-N—((S)-tetrahydrofuran-3-yl)acetamide]
20 | 72.9 % of control | 30.9 % of control |  |  |  | Cl.Fc1ccc(Br)cc1[C@]12C[C@H]1c1c(CCN3CCCC3)[nH]c(=S)n1C2 [Example 185, (5aS,6aR)-5a-(5-bromo-2-fluorophenyl)-1-(2-(pyrrolidin-1-yl)ethyl)-5,5a,6,6a-tetrahydrocyclopropa[3,4]pyrrolo[1,2-c]imidazole-3(2H)-thione hydrochloride]
